In patent US20240148821A1, “PHARMACEUTICAL USE OF CYCLIC PEPTIDE COMPOUND” (CHUGAI SEIYAKU KABUSHIKI KAISHA, priority 2021, published 2024):
Numbered stars: 1 amine (or outer) side, 2 acyl side, 3 side chain; on linkers, the order of the positions; unused ones are H or OH. Bridge positions count the residues as written; N and C are the ends. Square brackets hold non-standard residues; d marks the D form. Peptide text beside a SMILES is read from it. * marks the point of attachment. hPhe(3-Cl-4-CF3) = N[C@@H](CCc1ccc(C(F)(F)F)c(Cl)c1)C(=O)O; hPhe(3-F,4-CF3) = N[C@@H](CCc1ccc(C(F)(F)F)c(F)c1)C(=O)O; NEtPhe(4-CF3) = CCN[C@@H](Cc1ccc(C(F)(F)F)cc1)C(=O)O; NMePhe(4-CF3) = CN[C@@H](Cc1ccc(C(F)(F)F)cc1)C(=O)O; NPrAsp = CCCN([C@@H](CC(=O)[*:3])C(=O)[*:2])[*:1]; X25 = COc1ccc(C[C@@H](C(=O)[*:2])N(C)[*:1])cn1; NMedβ3hAla = C[C@H](CC(=O)[*:2])N(C)[*:1]; NMeGly(cPent) = CN[C@H](C(=O)O)C1CCCC1; NMeGly(cBu) = CN[C@H](C(=O)O)C1CCC1; NMeCha = CN[C@@H](CC1CCCCC1)C(=O)O; Hyp = O=C(O)[C@@H]1C[C@@H](O)CN1; NMeChg = CN[C@H](C(=O)O)C1CCCCC1; NMeI = CC[C@H](C)[C@H](NC)C(=O)O; NMeE = CN[C@@H](CCC(=O)O)C(=O)O; NMeD = CN[C@@H](CC(=O)O)C(=O)O; NMeL = CN[C@@H](CC(C)C)C(=O)O; NMeS = CN[C@@H](CO)C(=O)O; NMeA = CN[C@@H](C)C(=O)O; Piperidide = C1CCN(*)CC1; Pyrrolidide = C1CCN(*)C1; Ac5c = NC1(C(=O)O)CCCC1; Aze = O=C(O)[C@@H]1CCN1; Ac4c = NC1(C(=O)O)CCC1; Sar = CNCC(=O)O; Propyl = CCC*

Experiments:
[1] = system: Human pancreatic cancer cell line AsPC-1 (G12D mutation Kras); assay: AsPC-1 cell growth inhibition (AsPC-1 CGI); assay type: cell-based; conditions: read-out: AsPC-1 cell growth inhibition, 50% growth inhibitory concentration (IC50 value); 96 hours, CellTiter-Glo, values classified in ranges
Method: Test compounds were serially dilated with dimethyl sulfoxide, and 200 nL was then dispensed to a U-bottom 96-well plate using Labcyte Echo. […] The cell suspension was dispensed to a. plate containing a test compound at 100 μL per well and incubated at 37° C. in a 5% carbon dioxide gas incubator. 96 hours later, 80 μL of CellTiter-Glo (Promega) was added to each well and fluorescence was measured.

[2] = target: protein-protein interaction between Kras and SOS1 (biotin-tagged human Kras loaded with GDP, His-tagged human SOS1) (Homo sapiens (Human), UniProt P01116, G12D); assay: Protein-protein interaction inhibition between Kras and SOS1 (KrasG12D-SOS PPI) using AlphaScreen; assay type: biochemical; conditions: AlphaScreen; biotin-tagged human Kras loaded with GDP, His-tagged human SOS1; read-out: KRAS G12D-SOS PPI IC50;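 further: kras produced in E. coli, Ni-coupled donor beads and streptavidin acceptor beads, excitation 680 nm with emission detected at 520–620 nm via singlet oxygen transfer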

Question: Which IC50 [1] does the source give for `CCCN1C(=O)[C@H](C2CCCC2)N(C)C(=O)C2(CCCC2)NC(=O)[C@@H]2CCCN2C(=O)[C@H](CCc2ccc(C(F)(F)F)c(Cl)c2)NC(=O)CN(C)C(=O)[C@H](C2CCC2)N(C)C(=O)[C@@H]2CCN2C(=O)[C@H](C)N(C)C(=O)[C@H]([C@@H](C)CC)NC(=O)[C@H](CC(C)C)N(C)C(=O)C[C@H]1C(=O)N1CCCCC1` [Compound 524] ([NMeL]I[NMeA][Aze][NMeGly(cBu)][Sar][hPhe(3-Cl-4-CF3)]P[Ac5c][NMeGly(cPent)][NPrAsp]-Piperidide; lactam N-11) here?
Answer: Its IC50 is greater than 500 nM.

Question: What about the IC50 [2] of the same compound?
Answer: Its IC50 is 82 nM.

Question: `CCCOC[C@H]1C(=O)N(C)CC(=O)N[C@@H](CCc2ccc(C(F)(F)F)c(Cl)c2)C(=O)N2CCC[C@H]2C(=O)NC2(CCCC2)C(=O)N(C)[C@@H]([C@@H](C)CC)C(=O)N(C)[C@H](C)CC(=O)N(C)[C@@H](CC(C)C)C(=O)N[C@@H]([C@@H](C)CC)C(=O)N(C)[C@@H](C)C(=O)N2CC[C@H]2C(=O)N1C` [Compound 529] (cyclo([Ac5c][NMeI][NMedβ3hAla][NMeL]I[NMeA][Aze][NMeS](Propyl)[Sar][hPhe(3-Cl-4-CF3)]P)) was tested. Which IC50 [1] did it give?
Answer: The IC50 was no more than 20 nM.

Question: What about the IC50 [2] of the same compound?
Answer: Its IC50 is 8.2 nM.

Question: With `CCO[C@@H]1C[C@H]2C(=O)NC3(CCC3)C(=O)N(C)[C@@H]([C@@H](C)CC)C(=O)N(C)[C@H](C)CC(=O)N(C)[C@@H](CC(C)C)C(=O)N[C@@H]([C@@H](C)CC)C(=O)N(C)[C@@H](C)C(=O)N3CC[C@H]3C(=O)N(CC)[C@@H](Cc3ccc(C(F)(F)F)cc3)C(=O)N(C)CC(=O)N[C@@H](CCc3ccc(C(F)(F)F)c(Cl)c3)C(=O)N2C1` [Compound 547] (cyclo([Ac4c][NMeI][NMedβ3hAla][NMeL]I[NMeA][Aze][NEtPhe(4-CF3)][Sar][hPhe(3-Cl-4-CF3)][Hyp](Et))) as the compound, how does the IC50 [1] read?
Answer: Its IC50 is no more than 20 nM.

Question: What about the IC50 [2] of the same compound?
Answer: Its IC50 is 1 nM.

Question: Which results are given for `CC[C@H](C)[C@@H]1NC(=O)[C@H](CC(C)C)N(C)C(=O)C[C@@H](C(=O)N(C)C)N(C)C(=O)[C@H]([C@@H](C)CC)N(C)C(=O)C2(CCCC2)NC(=O)[C@@H]2CCCN2C(=O)[C@H](CCc2ccc(C(F)(F)F)c(F)c2)NC(=O)CN(C)C(=O)[C@H](C2CCCC2)N(C)C(=O)[C@@H]2CCN2C(=O)[C@H](C)N(C)C1=O` [Compound 555] ([NMeL]I[NMeA][Aze][NMeGly(cPent)][Sar][hPhe(3-F,4-CF3)]P[Ac5c][NMeI][NMeD]-NMe2; lactam N-11)?
Answer: IC50 [1]: ≤ 20 nM; IC50 [2]: 2.6 nM

Question: `CCCOC[C@H]1C(=O)N(C)CC(=O)N[C@@H](CCc2ccc(C(F)(F)F)c(Cl)c2)C(=O)N2CCC[C@H]2C(=O)NC2(CCCC2)C(=O)N(C)[C@@H]([C@@H](C)CC)C(=O)N(C)[C@H](C(=O)N2CCCC2)CC(=O)N(C)[C@@H](CC(C)C)C(=O)N[C@@H]([C@@H](C)CC)C(=O)N(C)[C@@H](C)C(=O)N2CC[C@H]2C(=O)N1C` [Compound 567] ([NMeL]I[NMeA][Aze][NMeS](Propyl)[Sar][hPhe(3-Cl-4-CF3)]P[Ac5c][NMeI][NMeD]-Pyrrolidide; lactam N-11) was tested. Which IC50 [1] did it give?
Answer: The IC50 was no more than 20 nM.

Question: And the IC50 [2]?
Answer: Its IC50 is 1.5 nM.

Question: `CC[C@H](C)[C@@H]1NC(=O)[C@H](CC(C)C)N(C)C(=O)C[C@@H](C)N(C)C(=O)[C@H](C2CCCC2)N(C)C(=O)C2(CCCC2)NC(=O)[C@@H]2CCCN2C(=O)[C@H](CCc2ccc(C(F)(F)F)c(Cl)c2)NC(=O)CN(C)C(=O)[C@H](Cc2ccc(C(F)(F)F)cc2)N(C)C(=O)[C@@H]2CCN2C(=O)[C@H](C)N(C)C1=O` [Compound 587] (cyclo([Ac5c][NMeGly(cPent)][NMedβ3hAla][NMeL]I[NMeA][Aze][NMePhe(4-CF3)][Sar][hPhe(3-Cl-4-CF3)]P)) was tested. Which IC50 [1] did it give?
Answer: The IC50 was no more than 20 nM.

Question: And the IC50 [2]?
Answer: The IC50 was 1.2 nM.

Question: Which IC50 [1] does the source give for `CC[C@H](C)[C@@H]1NC(=O)[C@H](CC(C)C)N(C)C(=O)C[C@@H](C(=O)N2CCCC2)N(C)C(=O)[C@H](C2CCCC2)N(C)C(=O)C2(CCCC2)NC(=O)[C@@H]2CCCN2C(=O)[C@H](CCc2ccc(C(F)(F)F)c(Cl)c2)NC(=O)CN(C)C(=O)[C@H](Cc2ccc(C(F)(F)F)cc2)N(C)C(=O)[C@@H]2CCN2C(=O)[C@H](C)N(C)C1=O` [Compound 589] ([NMeL]I[NMeA][Aze][NMePhe(4-CF3)][Sar][hPhe(3-Cl-4-CF3)]P[Ac5c][NMeGly(cPent)][NMeD]-Pyrrolidide; lactam N-11) here?
Answer: Its IC50 is no more than 20 nM.

Question: What about the IC50 [2] of the same compound?
Answer: The IC50 was 0.49 nM.

Question: Which IC50 [1] does the source give for `CC[C@H](C)[C@@H]1NC(=O)[C@H](CC(C)C)N(C)C(=O)C[C@@H](C(=O)N2CCCCC2)N(C)C(=O)[C@H](C2CCCCC2)N(C)C(=O)C2(CCCC2)NC(=O)[C@H](CCC(=O)NC)N(C)C(=O)[C@H](CCc2ccc(C(F)(F)F)c(Cl)c2)NC(=O)CN(C)C(=O)[C@H](CC2CCCCC2)N(C)C(=O)CN(C)C(=O)CN(C)C1=O` [Compound 590] ([NMeL]I[Sar][Sar][NMeCha][Sar][hPhe(3-Cl-4-CF3)][NMeE](NHMe)[Ac5c][NMeChg][NMeD]-Piperidide; lactam N-11) here?
Answer: The IC50 was greater than 500 nM.

Question: And the IC50 [2]?
Answer: Its IC50 is 1.4 nM.

Question: Which IC50 [1] does the source give for `CC[C@H](C)[C@@H]1NC(=O)[C@H](CC(C)C)N(C)C(=O)C[C@@H](C(=O)N2CCCCC2)N(C)C(=O)[C@H](C2CCCCC2)N(C)C(=O)C2(CCCC2)NC(=O)[C@H](Cc2ccc(OC)nc2)N(C)C(=O)[C@H](CCc2ccc(C(F)(F)F)c(Cl)c2)NC(=O)CN(C)C(=O)[C@H](CC2CCCCC2)N(C)C(=O)CN(C)C(=O)CN(C)C1=O` [Compound 592] ([NMeL]I[Sar][Sar][NMeCha][Sar][hPhe(3-Cl-4-CF3)][X25][Ac5c][NMeChg][NMeD]-Piperidide; lactam N-11) here?
Answer: The IC50 was greater than 500 nM.

Question: And the IC50 [2]?
Answer: The IC50 was 26 nM.
